Reference: article PMC6825211 (Nature Communications, 2019)
Where “and” joins values, the source holds several entries; their conditions need not be identical. Identical values can stand only once.

Columns and labels:
[1] = test system: obese diabetic Lepr db/db mice; assay: db/db model: insulin secretion during ipGTT; format: in vivo, mouse; set-up: GSIS: unit not given here
Text: (§1) Data are representative of six mice per group (n = 6 for (a–f)). g–j Mice were killed at day 31. g β-cell mass (given as percentage of the whole pancreatic section from ten sections spanning the width of the pancreas; n = 5 mice/group) and quantitative analyses from triple stainings for (h) TUNEL, (i) Ki67, (j) pHH3, and (k) nuclear PDX1 expression, insulin, and DAPI expressed as percentage of TUNEL-, Ki67-, pHH3-, or nuclear PDX1-positive β-cells ± SEM. An average number of 13667 (h), 5937 (i), 7108 (j), or 4330 (k) β-cells were counted from n = 3–5 (h, i, k) or n = 5–6 (j) mice/group.
(§2) For intraperitoneal glucose tolerance tests, mice were fasted 12 h overnight and injected i.p. with glucose (40%; B.Braun, Melsungen, Germany) at a dose of 1 g/kg body weight. Blood samples were obtained at time points 0, 15, 30, 60, 90, and 120 min for glucose measurements by using a Glucometer. For i.p. insulin tolerance tests, mice were injected with 0.75 U/kg body weight recombinant human insulin (Novolin, Novo Nordisk) after 4–5-h fasting, and glucose concentration was determined with the Glucometer. Insulin secretion was measured before (0 min) and after (15 and 30 min) i.p. injection of glucose (2 g/kg) and measured by using ultrasensitive mouse Elisa kit (ALPCO Diagnostics, Salem, NH).

[2] = test system: obese diabetic Lepr db/db mice; assay: db/db model: β-cell proliferation (Ki67); format: in vivo, mouse; conditions: dbdb mice
[3] = biological target: MAP4K4 (Homo sapiens, UniProt O95819); assay: biochemical; conditions: read-out: % inhibition by neratinib
[4] = test system: obese diabetic Lepr db/db mice; assay: db/db model: ratio of secreted insulin and glucose at fed state; format: in vivo, mouse; conditions: dbdb Nera
[5] = biological target: JAK1 (Homo sapiens, UniProt P23458); assay: Nanosyn kinase profiling, mobility shift assay; conditions: read-out: % inhibition by neratinib
[6] = biological target: ROCK1 (Homo sapiens, UniProt Q13464); assay: Nanosyn kinase profiling, mobility shift assay; conditions: read-out: % inhibition by neratinib
[7] = biological target: CK1-EPSILON (Homo sapiens, UniProt P49674); assay: Nanosyn kinase profiling, mobility shift assay; conditions: read-out: % inhibition by neratinib
[8] = biological target: CDK2 (Homo sapiens, UniProt P24941); assay: Nanosyn kinase profiling, mobility shift assay; conditions: read-out: % inhibition by neratinib
[9] = biological target: PRKD2 (Homo sapiens, UniProt Q9BZL6); assay: Nanosyn kinase profiling, mobility shift assay; conditions: read-out: % inhibition by neratinib
[10] = biological target: FGFR1 (Homo sapiens, UniProt P11362); assay: Nanosyn kinase profiling, mobility shift assay; conditions: read-out: % inhibition by neratinib
[11] = test system: obese diabetic Lepr db/db mice; assay: db/db model: β-cell apoptosis (TUNEL); format: in vivo, mouse; conditions: for TUNEL%/ mouse: dbdb mice
Text: as §1
Mouse pancreases were dissected and fixed in 4% formaldehyde at 4 °C for 12 h before embedding in paraffin[62]. Two-four-micrometer sections were deparaffinized, rehydrated, and incubated overnight at 4 °C with anti-PDX-1 (Abcam; #47267), anti-Glut2 (Chemicon; #07-1402), anti-Ki67 (Dako; #M7249), anti-phospho-Histone H3 (Ser10; Merck #06-570), and anti-NKX6.1 (DSHB, University of Iowa #F55A12[66]) in combination with TSA (Invitrogen #T30955), or for 2 h at room temperature with anti-insulin (Dako; A0546) antibodies (all at a dilution of 1:100, except anti-PDX-1, which was diluted 1:400) followed by fluorescein isothiocyanate (FITC)- or Cy3-conjugated secondary antibodies (Jackson ImmunoResearch Laboratories, West Grove, PA). Slides were mounted with Vectashield with 4′6-diamidino-2-phenylindole (DAPI) (Vector Labs). β-cell apoptosis was analyzed by the terminal deoxynucleotidyl transferase-mediated dUTP nick-end labeling (TUNEL) technique according to the manufacturer’s instructions (In Situ Cell Death Detection Kit, TMR red; Roche) and double stained for insulin. Fluorescence was analyzed by using a Nikon MEA53200 (Nikon GmbH, Dusseldorf, Germany) microscope, and images were acquired by using NIS-Elements software (Nikon).

[12] = test system: Raw264.7 cells; assay: RT-PCR of LPS-induced TNFα, IL-1β, IL-6 expression; conditions: 100 ng/mL LPS 4 h
Text: One microgram of cDNA of each treatment sample was synthesized by using SuperScript III First-Strand Synthesis (Invitrogen). Taqman mouse primers were purchased from ThermoFisher: TNFα (Catalog No. Mm00443258_m1), IL-6 (Catalog No. Mm00446190_m1), IL-1β (Catalog No. Mm00434228_m1), and GAPDH as endogenous housekeeping control (Catalog No. Mm99999915_g1). The qPCR reaction was set up for TNFα, IL-6, IL-1β, and GAPDH individually, with technical triplicates for each gene per treatment sample and performed by the Applied Biosystems ViiA 7 real-time PCR system. The ∆∆CT method was used to analyze the relative changes in gene expression.

[13] = MALDI imaging mass spectrometry of pancreas sections; format: in vivo, mouse
Experimental: MALDI imaging mass spectrometry (MALDI imaging MS) was performed on pancreas, liver, colon, stomach, kidney, heart, and brain tissue sections from WT C57BL/6J and db/db mice in triplicates. […] For MALDI imaging MS, 10-µm cryo sections were cut with a cryo-microtome (CM1860, Leica Biosystems, Nussloch, Germany) and mounted on indium–tin-coated conductive glass slides (Bruker Daltonics, Bremen, Germany). The matrix (HCCA in 50% ACN, 0.5% TFA) was applied with the ImagePrep Device (Bruker Daltonics), and MALDI spectra were recorded by using a Bruker autofleX speed mass spectrometer in positive reflector mode with a mass range of 400–1400 m/z. A large-size laser diameter was used with a lateral resolution of 100 µm, and 500 laser shots per pixel were accumulated with the random walk option set to 100 shots per position. […] Standards were spotted on mice liver cryo-sections and the spectral intensity was plotted.

[14] = test system: isolated islets from db/db mice; assay: Ex vivo pMST1, BIM (western blot) and nuclear PDX1 in isolated db/db islets; format: cell-based, mouse; conditions: 10 μM, 24 h ex vivo
Text: mouse islets ex vivo. Representative double-stainings for PDX1 (green) and insulin (red) shown from isolated islets from 10-week old heterozygous db/+ mice or db/db littermates […]
Representative microscopical images are shown. White arrow point to PDX1 deficient nuclei in db/db mouse islets. Related to Figure

[15] = test system: obese diabetic Lepr db/db mice; assay: db/db model: ipGTT; format: in vivo, mouse; set-up: AUC ipGTT: unit not given beside the values
Text: as §1, §2

[16] = test system: MLD–STZ C57BL/6J mice; assay: MLD–STZ model: ratio of secreted insulin and glucose at fed state; format: in vivo, mouse
[17] = biological target: T1, MST3 (Homo sapiens, UniProt Q9Y6E0); assay: Nanosyn kinase profiling, mobility shift assay; format: biochemical; conditions: 12 points dose response
T1 construct: Nanosyn (assay service)
Experimental: (§3) inhibition was determined for each assay.

[18] = biological target: PAK3 (Homo sapiens, UniProt O75914); assay: Nanosyn kinase profiling, mobility shift assay; format: biochemical; conditions: 12 points dose response
Experimental: as §3

Sequence of PRKD2 (Q9BZL6 whole entry): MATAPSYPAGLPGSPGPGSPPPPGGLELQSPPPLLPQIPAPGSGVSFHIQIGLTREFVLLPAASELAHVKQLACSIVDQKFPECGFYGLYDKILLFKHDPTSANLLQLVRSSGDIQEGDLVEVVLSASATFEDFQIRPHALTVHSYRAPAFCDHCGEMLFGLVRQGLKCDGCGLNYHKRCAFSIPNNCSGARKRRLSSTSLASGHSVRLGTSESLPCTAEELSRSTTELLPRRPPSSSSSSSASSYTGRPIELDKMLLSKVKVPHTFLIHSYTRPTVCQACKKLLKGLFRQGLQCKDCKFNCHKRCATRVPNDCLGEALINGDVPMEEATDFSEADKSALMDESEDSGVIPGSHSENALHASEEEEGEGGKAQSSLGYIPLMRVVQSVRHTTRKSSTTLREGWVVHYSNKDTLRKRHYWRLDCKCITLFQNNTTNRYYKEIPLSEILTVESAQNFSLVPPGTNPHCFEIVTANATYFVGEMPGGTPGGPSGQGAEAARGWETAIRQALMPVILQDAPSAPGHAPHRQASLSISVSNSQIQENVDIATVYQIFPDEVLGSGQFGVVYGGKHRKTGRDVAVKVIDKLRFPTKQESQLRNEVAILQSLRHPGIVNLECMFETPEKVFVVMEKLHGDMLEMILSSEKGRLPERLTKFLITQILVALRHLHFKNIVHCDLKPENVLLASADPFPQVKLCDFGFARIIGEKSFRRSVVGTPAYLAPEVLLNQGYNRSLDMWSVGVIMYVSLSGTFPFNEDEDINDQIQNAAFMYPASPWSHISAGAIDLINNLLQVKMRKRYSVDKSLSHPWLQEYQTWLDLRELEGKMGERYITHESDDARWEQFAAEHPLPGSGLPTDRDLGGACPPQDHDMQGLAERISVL
Sequence of PAK3 (O75914 whole entry, species assumed): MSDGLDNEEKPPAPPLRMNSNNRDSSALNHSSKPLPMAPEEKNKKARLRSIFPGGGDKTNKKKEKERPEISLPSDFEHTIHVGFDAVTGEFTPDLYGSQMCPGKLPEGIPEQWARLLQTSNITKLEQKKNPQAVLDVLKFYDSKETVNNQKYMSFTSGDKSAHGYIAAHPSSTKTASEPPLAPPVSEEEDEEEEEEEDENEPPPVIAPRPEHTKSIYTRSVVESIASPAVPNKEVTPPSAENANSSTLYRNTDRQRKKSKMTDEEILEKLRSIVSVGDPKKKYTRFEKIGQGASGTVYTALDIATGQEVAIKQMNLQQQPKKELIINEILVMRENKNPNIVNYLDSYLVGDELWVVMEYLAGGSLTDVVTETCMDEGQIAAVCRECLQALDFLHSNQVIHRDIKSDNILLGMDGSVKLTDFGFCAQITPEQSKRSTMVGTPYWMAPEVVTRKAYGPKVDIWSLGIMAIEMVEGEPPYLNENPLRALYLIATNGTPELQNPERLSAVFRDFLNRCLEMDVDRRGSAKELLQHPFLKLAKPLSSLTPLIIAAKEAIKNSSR
Sequence of JAK1 (P23458 whole entry): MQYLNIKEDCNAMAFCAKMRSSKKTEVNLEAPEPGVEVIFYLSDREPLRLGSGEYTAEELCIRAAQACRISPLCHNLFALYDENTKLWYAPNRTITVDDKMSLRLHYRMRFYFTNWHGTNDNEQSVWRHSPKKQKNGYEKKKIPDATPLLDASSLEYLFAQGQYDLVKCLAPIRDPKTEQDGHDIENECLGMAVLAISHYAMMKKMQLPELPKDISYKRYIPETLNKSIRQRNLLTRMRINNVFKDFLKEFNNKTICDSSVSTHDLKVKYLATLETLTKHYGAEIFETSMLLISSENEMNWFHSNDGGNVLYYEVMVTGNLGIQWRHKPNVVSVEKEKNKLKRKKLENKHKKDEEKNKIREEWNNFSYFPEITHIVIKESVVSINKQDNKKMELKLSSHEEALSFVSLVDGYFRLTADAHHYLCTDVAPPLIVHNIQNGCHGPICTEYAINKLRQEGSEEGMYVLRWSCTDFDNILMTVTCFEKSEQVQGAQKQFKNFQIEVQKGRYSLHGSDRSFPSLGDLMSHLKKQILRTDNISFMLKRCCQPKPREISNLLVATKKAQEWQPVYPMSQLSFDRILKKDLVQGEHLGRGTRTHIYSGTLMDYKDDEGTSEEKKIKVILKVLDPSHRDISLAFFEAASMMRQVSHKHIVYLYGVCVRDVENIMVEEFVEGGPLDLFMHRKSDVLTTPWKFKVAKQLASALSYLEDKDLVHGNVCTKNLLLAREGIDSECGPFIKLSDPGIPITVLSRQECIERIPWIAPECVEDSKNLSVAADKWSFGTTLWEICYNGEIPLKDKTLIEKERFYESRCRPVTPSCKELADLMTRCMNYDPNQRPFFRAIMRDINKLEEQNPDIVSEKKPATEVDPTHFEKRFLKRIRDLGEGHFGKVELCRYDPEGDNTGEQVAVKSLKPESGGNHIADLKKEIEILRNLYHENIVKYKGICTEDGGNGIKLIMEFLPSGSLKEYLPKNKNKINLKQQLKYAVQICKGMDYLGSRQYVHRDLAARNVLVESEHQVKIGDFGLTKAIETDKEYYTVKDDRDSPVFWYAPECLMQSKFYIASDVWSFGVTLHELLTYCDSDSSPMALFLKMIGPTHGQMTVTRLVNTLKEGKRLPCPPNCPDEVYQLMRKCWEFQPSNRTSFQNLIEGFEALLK
Sequence of FGFR1 (P11362 22-822): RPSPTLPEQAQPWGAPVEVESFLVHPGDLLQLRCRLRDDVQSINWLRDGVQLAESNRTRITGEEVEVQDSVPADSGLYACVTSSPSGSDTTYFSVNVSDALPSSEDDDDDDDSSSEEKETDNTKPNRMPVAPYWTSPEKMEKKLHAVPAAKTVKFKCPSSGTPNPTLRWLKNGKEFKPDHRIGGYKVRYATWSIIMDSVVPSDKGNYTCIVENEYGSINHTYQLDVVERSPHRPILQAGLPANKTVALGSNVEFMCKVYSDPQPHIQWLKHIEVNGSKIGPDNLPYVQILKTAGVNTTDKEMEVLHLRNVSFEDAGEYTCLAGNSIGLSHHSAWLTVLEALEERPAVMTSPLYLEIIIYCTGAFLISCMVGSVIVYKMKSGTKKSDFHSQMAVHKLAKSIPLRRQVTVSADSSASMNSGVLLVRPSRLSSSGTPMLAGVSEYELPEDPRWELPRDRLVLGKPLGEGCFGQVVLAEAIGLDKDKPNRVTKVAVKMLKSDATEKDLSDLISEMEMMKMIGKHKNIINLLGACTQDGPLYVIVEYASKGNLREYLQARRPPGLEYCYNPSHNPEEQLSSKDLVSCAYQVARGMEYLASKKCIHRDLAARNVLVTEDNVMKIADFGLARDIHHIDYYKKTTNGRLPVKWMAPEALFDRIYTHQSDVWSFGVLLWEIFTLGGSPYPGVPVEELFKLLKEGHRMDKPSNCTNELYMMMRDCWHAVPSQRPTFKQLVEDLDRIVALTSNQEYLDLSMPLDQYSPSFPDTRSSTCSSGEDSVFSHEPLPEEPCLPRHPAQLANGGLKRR
Sequence of CK1-EPSILON (P49674 whole entry): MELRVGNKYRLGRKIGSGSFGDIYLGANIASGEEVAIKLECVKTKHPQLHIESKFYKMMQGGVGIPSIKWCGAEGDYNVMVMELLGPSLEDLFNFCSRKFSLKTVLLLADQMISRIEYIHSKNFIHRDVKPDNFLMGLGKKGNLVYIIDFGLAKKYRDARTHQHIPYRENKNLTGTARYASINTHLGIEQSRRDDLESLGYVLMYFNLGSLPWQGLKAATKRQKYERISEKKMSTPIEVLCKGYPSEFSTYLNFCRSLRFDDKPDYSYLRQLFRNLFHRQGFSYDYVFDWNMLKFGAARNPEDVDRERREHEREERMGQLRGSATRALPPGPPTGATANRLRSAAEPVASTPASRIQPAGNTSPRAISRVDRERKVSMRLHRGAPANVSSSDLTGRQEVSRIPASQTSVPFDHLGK
T1 sequence (Q9Y6E0 whole entry, species assumed): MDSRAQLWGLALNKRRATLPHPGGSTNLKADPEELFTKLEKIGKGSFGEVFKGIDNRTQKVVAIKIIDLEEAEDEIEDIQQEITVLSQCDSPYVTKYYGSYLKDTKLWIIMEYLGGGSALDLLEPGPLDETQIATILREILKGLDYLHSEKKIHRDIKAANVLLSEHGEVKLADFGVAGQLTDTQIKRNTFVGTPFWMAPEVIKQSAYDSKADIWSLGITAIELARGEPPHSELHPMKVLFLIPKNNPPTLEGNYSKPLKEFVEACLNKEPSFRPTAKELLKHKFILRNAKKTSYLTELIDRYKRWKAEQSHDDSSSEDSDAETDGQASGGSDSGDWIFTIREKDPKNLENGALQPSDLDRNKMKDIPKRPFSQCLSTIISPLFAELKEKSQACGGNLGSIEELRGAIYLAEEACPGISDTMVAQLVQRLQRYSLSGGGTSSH

Q: For CCOc1cc2ncc(C#N)c(Nc3ccc(OCc4ccccn4)c(Cl)c3)c2cc1NC(=O)/C=C/CN(C)C [neratinib], which insulin secretion ([1]; db/db) is on record?
A: enhanced insulin secretion

Q: What about the GSIS ([1]; time after glucose injection 0, MEAN) of the same compound?
A: 7.868

Q: And the GSIS ([1]; time after glucose injection 0, individual mice)?
A: 7.6163 and 7.7481 and 3.303 and 9.154 and 8.9273 and 10.458

Q: What about the GSIS ([1]; time after glucose injection 15, MEAN) of the same compound?
A: 11.2434

Q: And the GSIS ([1]; time after glucose injection 15, individual mice)?
A: 17.086 and 7.6058 and 10.292 and 7.1842 and 8.1355 and 17.157

Q: What about the Ki67%/ mouse ([2]; Mean) of the same compound?
A: 1.047%

Q: And the Ki67%/ mouse ([2]; individual mice)?
A: 0.4896% and 1.365% and 0.6515% and 1.681%

Q: And the inhibition at 10 µM [3]?
A: 73%

Q: What about the ins/gluc ([4]; Mean) of the same compound?
A: 13.8584

Q: And the ins/gluc ([4]; fed state, individual mice)?
A: 16.7538 and 11.2869 and 14.8626 and 15.5775 and 11.515 and 13.1546

Q: What about the inhibition at 10 µM [5] of the same compound?
A: 5%

Q: What about the inhibition at 10 µM [6] of the same compound?
A: -48%

Q: What about the inhibition at 10 µM [7] of the same compound?
A: 77%

Q: And the inhibition at 10 µM [8]?
A: 9%

Q: And the inhibition at 10 µM [9]?
A: 71%

Q: And the inhibition at 10 µM [10]?
A: 26%

Q: What about the β-cell apoptosis ([11]; db/db, day 31) of the same compound?
A: significantly reduced β-cell apoptosis

Q: What about the TUNEL%/ mouse ([11]; Mean) of the same compound?
A: 0.5462%

Q: And the TUNEL%/ mouse ([11]; individual mice)?
A: 0.6553% and 0.4112% and 0.66% and 0.4585%

Q: And the “LPS-induced expression of TNFα, IL-1β, and IL-6” value [12]?
A: largely inhibited

Q: What about the “neratinib in pancreatic tissue” value ([13]; WT mice, 4 h after i.p. injection) of the same compound?
A: clearly detected

Q: What about the “neratinib signal in pancreas tissue sections” value ([13]; db/db mice, 4-week daily i.p. injection) of the same compound?
A: specific signal was obtained

Q: And the “MST1 activation and proapoptotic BIM in db/db islets” value [14]?
A: reversed

Q: What about the “nuclear PDX1 expression in db/db islets” value [14] of the same compound?
A: enhanced nuclear PDX1 expression

Q: What about the “basal glucose levels after an overnight fast” value ([15]; db/db) of the same compound?
A: unchanged

Q: What about the “glucose levels in ipGTT” value ([15]; db/db) of the same compound?
A: lower glucose levels at all time points measured

Q: And the “AUC ipGTT” value ([15]; insert 8b, individual mice)?
A: 30540 and 34635 and 37620 and 33592.5 and 28230 and 32955

Q: What about the “MEAN AUC ipGTT” value ([15]; insert 8b, mean) of the same compound?
A: 32928.8

Q: What about the ipGTT ([15]; time after glc 0, MEAN) of the same compound?
A: 167.333 mg/dL

Q: And the ipGTT ([15]; time after glc 0, individual mice)?
A: 133 mg/dL and 142 mg/dL and 168 mg/dL and 224 mg/dL and 154 mg/dL and 183 mg/dL

Q: What about the ipGTT ([15]; time after glc 15, MEAN) of the same compound?
A: 424.5 mg/dL

Q: What about the ipGTT ([15]; time after glc 15, individual mice, 600 mg/dl is maximum reading) of the same compound?
A: 425 mg/dL and 445 mg/dL and 468 mg/dL and 413 mg/dL and 308 mg/dL and 488 mg/dL

Q: And the ipGTT ([15]; time after glc 30, MEAN, 600 mg/dl is maximum reading)?
A: 520.5 mg/dL

Q: And the ipGTT ([15]; time after glc 30, individual mice, 600 mg/dl is maximum reading)?
A: 481 mg/dL and ≥ 600 mg/dL and 476 mg/dL and 485 mg/dL

Q: And the ipGTT ([15]; time after glc 60, MEAN)?
A: 340.167 mg/dL

Q: And the ipGTT ([15]; time after glc 60, individual mice)?
A: 301 mg/dL and 355 mg/dL and 388 mg/dL and 367 mg/dL and 321 mg/dL and 309 mg/dL

Q: What about the ipGTT ([15]; time after glc 90, MEAN) of the same compound?
A: 226 mg/dL

Q: And the ipGTT ([15]; time after glc 90, individual mice)?
A: 221 mg/dL and 183 mg/dL and 280 mg/dL and 259 mg/dL and 141 mg/dL and 272 mg/dL

Q: And the ipGTT ([15]; time after glc 120, MEAN)?
A: 170.833 mg/dL

Q: What about the ipGTT ([15]; time after glc 120, individual mice) of the same compound?
A: 191 mg/dL and 139 mg/dL and 210 mg/dL and 133 mg/dL and 213 mg/dL

Q: What about the ins/gluc ([16]; NeraCtr, Mean) of the same compound?
A: 4.232

Q: And the ins/gluc ([16]; NeraCtr, fed state, individual mice)?
A: 5.92 and 11.7581 and 5.035 and 1.3144 and 2.029 and 2.349 and 1.295 and 4.152

Q: What about the ins/gluc ([16]; NeraSTZ, Mean) of the same compound?
A: 2.006

Q: And the ins/gluc ([16]; NeraSTZ, fed state, individual mice)?
A: 2.868 and 0.965 (2×) and 1.859 and 3.923 and 1.035 and 2.9255 and 4.307 and 0.6012 and 1.262 and 1.53 and 2.798 and 0.7155 and 2.33

Q: What about the IC50 [17] of the same compound?
A: 5 nM

Q: What about the IC50 [18] of the same compound?
A: 1500 nM
